One data set has as its target T1, ShaI_delN (Drosophila melanogaster, UniProt P17971).
T1 construct: expressed in transfected cells; host or cells: CHO
As to the kind of experiment: ShaI_delN clonal lines, FLIPR blue membrane potential dye, KCl depolarization. To be noted: 4-5 mM, dye loaded 1 hr at RT. Type of data set: cell-based. As to the method:
ShaI_DelN C10 and C15 were tested for function on the FLIPR using the Molecular Devices blue membrane potential dye. The cells were seeded at 60K cells/well in 96-well Costar plates in complete media and assayed for function at 24 hrs. Depolarization with 15-60 mM KCl caused a 2-2.8 fold higher activity in the clonal line than the pcDNA control cell line (FIG. 5). Clone 10 had slightly higher activity than clone 15.
FIG. 5: ShaI_DelN clones tested on FLIPR with KCl depolarization. We also tested some known K-channel blockers on channel activity on the FLIPR (FIG. 6). […] The ShaI_delN clonal cell lines lost their GFP expression and assay window with cell passage. At passage 12, only 10-15% of the cell population was GFP positive.
(§1) The effects of barium (Ba2+) on ShaI_delN function were tested. Barium is known to inhibit some open rectifier and inward rectifier K-channel activities. Cells were dye loaded in the presence of BaCl2 for 1 hr at RT and assayed on the FLIPR using KCl depolarization for channel activation.

The next data set concerns CHO_pcDNA3 control cells. As to the kind of experiment: CHO_pcDNA3 control cells, FLIPR KCl depolarization. Type of data set: cell-based, Chinese hamster. To be noted: 4-5 mM, dye loaded 1 hr at RT. How it is done:
as §1

The next data set has as its target T2, ShaI (Drosophila melanogaster, UniProt P17971).
T2 construct: expressed in transfected cells; host or cells: CHO
T2 sequence (P17971 1-490 isoform P17971-1): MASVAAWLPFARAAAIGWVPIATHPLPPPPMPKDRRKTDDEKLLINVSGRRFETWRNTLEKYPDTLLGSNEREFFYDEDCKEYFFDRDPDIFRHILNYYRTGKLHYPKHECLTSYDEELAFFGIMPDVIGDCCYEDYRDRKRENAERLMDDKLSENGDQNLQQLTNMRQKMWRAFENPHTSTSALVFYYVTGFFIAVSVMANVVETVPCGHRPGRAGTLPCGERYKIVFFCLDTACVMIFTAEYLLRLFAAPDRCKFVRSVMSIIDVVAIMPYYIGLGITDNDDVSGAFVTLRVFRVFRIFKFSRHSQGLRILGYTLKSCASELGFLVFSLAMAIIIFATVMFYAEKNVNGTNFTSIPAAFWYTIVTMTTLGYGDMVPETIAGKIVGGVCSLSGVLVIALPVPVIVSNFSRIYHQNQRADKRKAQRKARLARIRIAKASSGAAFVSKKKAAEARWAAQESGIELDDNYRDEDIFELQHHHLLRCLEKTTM
As to the kind of experiment: ShaI electrophysiology (patch clamp). The format is cell-based. How it is done: Data were acquired and analyzed using pClamp software (version 9.0.1.16). The whole-cell configuration of the patch-clamp technique was used to voltage clamp cells at room temperature (22-25° C.). Pipettes were pulled from borosilicate glass capillaries (#8250, Garner Glass, Claremont, Calif.) using a DMZ Universal Puller (Zeitz, Munich, Germany) and had resistances of 1-2 MOhm when filled with pipette solution and measured in bath solution. The liquid junction potential between bath and pipette solution was always compensated before the formation of a gigaohm seal.
Membrane current was measured under whole-cell clamp, sampled at 2 kHz and filtered at 1 kHz by an Axoclamp 200B (Axon Instruments). Capacitance currents were electronically compensated at the beginning of each experiment. P/4 leak correction was applied.
To study ShaI currents on CHO cells, cells were held at −70 mV and a family of 500 ms test voltage pulses was applied starting from −70 to +70 mV, or +100 mV, in 10 mV increments. The amplitude, as measured for the current-voltage relationship, was defined as the maximal current at a given membrane potential.

The test system of data set [1] is calcium-activated potassium currents. The following applies: DUM neurons from cockroaches; cited from earlier work.
In the next data set the target is T3, DmSK Potassium Channel (Drosophila melanogaster, UniProt Q7KVW5).
T3 construct: expressed in transfected cells; host or cells: Xenopus laevis oocytes injected with in vitro transcribed RNA
Nature of the data set: Xenopus laevis oocyte two-electrode voltage clamp of DmSK. The format is cell-based. To be noted: intracellular injection of 100 mM, oocytes clamped at +5 mV. How it is done: Purpose: To utilize the oocyte two-electrode voltage clamp expression system to assay functional expression of the […] Drosophila melanogaster small-conductance calcium-activated potassium channel (SK) within Xenopus laevis oocytes.
Stage V-VI oocytes were injected with 50 nl of in vitro transcribed DmSK RNA (1 ug/ul) using a Drummond Nanoject Injector (pCRII-SK2+4D plasmid linearized with HindIII and transcribed using the Ambion T7 mMessage mMachine transcription kit).
Channel expression was assayed using two-electrode voltage clamp (borosilicate glass 1.5 mm×1.12 mm filled with 3M KCl) through a Turbo Tec 10C Amplifier (NPI Instruments) connected to an Apple PowerMac G3 via an ADInstruments PowerLab system.
Injected oocytes with resting potentials greater than −30 mV were clamped at +5 mV and perfused with ND-96 bath solution (96 mM NaCl, 2 mM KCl, 1 mM MgCl2, 0.3 mM CaCl2, 5 mM HEPES at pH 7.5 and 230 mOsm) Currents measured were filtered at 2 kHz and with a 50/60 Hz HumBug noise eliminator.
SK channels were activated with intracellular injection of 100 mM […] (9.2 nl) using the nanoject while clamped. Measured currents were compared to published results of SK activation within oocytes (FIG. 85).

The next data set deals with T4, DmSK (Drosophila melanogaster, UniProt Q7KVW5).
T4 construct: The resulting construct contains the SK CDS downstream of the CMV promoter; expressed in transfected cells; host or cells: CHO-K1 (pool 3 / clone SK3 and subclones)
Nature of the data set: DmSK CHO membrane potential dye assay, ionomycin activation. The format is cell-based. As to the method: Basic test protocol: Cells were plated at 5×10^4/well into 96-well poly-D-lysine assay plates (BD Biosciences) and placed at 37 C/5% CO2 the day before testing. Culture medium was aspirated and replaced with 0.4× blue membrane potential dye (Molecular Devices Corporation) in assay buffer and incubated for 1 hour at RT. The assay was run by reading baseline fluorescence for 20 sec, and reading an additional 60 or 180 sec after activation.
This assay was developed using the Molecular Devices blue membrane potential dye at 0.4× the normal concentration. It is important to vortex the dye upon hydration and rinse the vial repeatedly to ensure that all the dye has been recovered and that it is in solution. The dye can be stored during the day at 4°. Dye loading is carried out by flipping the culture medium from the 96-well poly-D-lysine plate, gently tapping the plate on Kimwipes to remove excess medium, replacing it with 180 ul 0.4× dye per well, and incubating in the dark at room temperature (25° C.-28° C.) for 3-5 hr. The assay plate is now ready for testing which comprises a 20 ul (10×) first addition and 50 ul (5×) second addition. 50 uM propafenone [final] is used as a control inhibitor. The assay is read for three minutes after activation to allow maximum window development relative to controls. […]

The nature of data set [2]: Ionomycin stability in solution. The following applies: 5 uM in assay buffer, SK activation. The format is physicochemical. How it is done: An experiment was conducted (data not shown) to examine the stability of ionomycin in solution. Ionomycin was diluted to 5 uM in assay buffer, loaded into a compound plate and compared with freshly-prepared ionomycin for SK activation the following day. The freshly-prepared ionomycin yielded a statistically significant 6% increase in assay window size, so our recommendation is for freshly-prepared ionomycin.

Data set [3] addresses T5, octopamine receptor (OctR, CG6919 dmOa2) (Drosophila melanogaster, UniProt Q9VCZ3).
T5 construct: expressed in transfected cells; host or cells: CHO stably expressing G-alpha-16
Nature of the data set: OctR clone 55 FLIPR Fluo-4 calcium assay. Type of data set: cell-based. How it is done:
FIG. 62. Cells were plated at 10K/well in 384 well plates and allowed to incubate overnight at […]. The cells were assayed 18-24 hours after seeding. Media was removed and cells were dye loaded for 60 minutes with 2 μM Fluo-4. After 1 hour, dye was removed and 20 μl of buffer added to the plate and placed into FLIPR. The 1st addition was antagonist dose response curves and the 2nd addition was agonist dose response curves. Antagonists were challenged with 100 nM Octopamine. In addition, these compounds were tested in the parental cell line CHO-Galpha16.
Cells were plated at 10,000 cells/well in 50 μl into 384-well black TC plates and allowed to incubate overnight at 37° C./5% CO2. The cells were assayed 18-24 hours after seeding. Culture medium was removed by flicking and cells were dye loaded for 60 minutes with 20 μl of 2 μM Fluo-4 in assay buffer plus probenecid at 25° C. After one hour dye was removed by flicking and 20 μL of assay buffer was added, wait 5 min prior to placing into the FLIPR and run using a two-addition protocol. The first addition (20 ul, 2×) was 0.5% DMSO final in assay buffer. The second addition (20 ul, 3×) was either assay buffer or 100 nM octopamine final.

Data set [4] can be described thus: Stability of octopamine solutions. The format is physicochemical. As to the method:
Octopamine was tested comparing freshly diluted versus a 24-hour solution (data not shown). The response obtained with the 24-hour solution stored at room temperature was identical to that of the freshly diluted solution. We have repeatedly […]

Data set [5] has as its target T6, octopamine receptor (OctR) (Drosophila melanogaster, UniProt Q9VCZ3).
T6 construct: various amounts of untagged OctR-pcDNA3.1 DNA were transfected into CHO cells; expressed in transfected cells; host or cells: CHO stably expressing G-alpha-16, transient transfection
T6 sequence (Q9VCZ3 1-508): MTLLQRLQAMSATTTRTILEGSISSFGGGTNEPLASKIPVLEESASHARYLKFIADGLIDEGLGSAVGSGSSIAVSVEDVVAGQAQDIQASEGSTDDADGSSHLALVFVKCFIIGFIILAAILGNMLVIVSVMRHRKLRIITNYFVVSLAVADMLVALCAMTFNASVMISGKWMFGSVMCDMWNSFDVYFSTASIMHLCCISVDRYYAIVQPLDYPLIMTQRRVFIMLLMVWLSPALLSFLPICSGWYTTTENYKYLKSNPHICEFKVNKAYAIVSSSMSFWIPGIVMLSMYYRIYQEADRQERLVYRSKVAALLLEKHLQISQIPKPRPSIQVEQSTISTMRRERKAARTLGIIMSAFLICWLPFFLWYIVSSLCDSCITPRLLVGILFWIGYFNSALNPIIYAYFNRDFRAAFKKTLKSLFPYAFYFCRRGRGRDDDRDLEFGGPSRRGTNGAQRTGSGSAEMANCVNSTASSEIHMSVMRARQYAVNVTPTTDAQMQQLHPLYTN
Nature of the data set: Transient OctR expression in CHO G-alpha-16 cells, Fluo-4, Discovery microscope. Type of data set: cell-based. As to the method: The untagged and GFP-tagged versions of OctR, which natively couples to cAMP, were transiently expressed in CHO cells stably expressing the G-alpha-16 promiscuous G protein, which signals through calcium. This allowed activation of the receptor to be measured by calcium-sensing fluorescent dyes.
In FIG. 55A, various amounts of untagged OctR-pcDNA3.1 DNA were transfected into CHO cells (6-well dish, 300,000 cells/well) and tested for function at 48 hours using Fluo-4 dye on the Discovery microscope. The graph shown below represents an average of all single-cell readings from cells expressing the cyan vector. It is assumed that the majority of cells expressing the cyan vector also express OctR.
FIG. 55. Calcium-sensing Fluo-4 fluorescent dye response to octopamine or tyramine stimulation in CHO cells stably expressing G-alpha-16 and transiently expressing increasing amounts of untagged or GFP-tagged OctR-pcDNA3.1. Cells cotransfected with pAmCyan vector as a marker of transfected cells were stimulated with a maximal dose of octopamine or sub-maximal dose of tyramine. Well averages of single-cell response measured on the Discovery microscope are graphed above.

Consider `[Ba+2]` [Ba2+], for which, on ShaI_delN, the “ShaI_delN channel activity with KCl depolarization” value is given as “without any significant reduction”. Besides, the “fluorescent responses with KCl depolarization” value with CHO_pcDNA3 control cells was “significantly reduced fluorescent responses”. Moreover, on ShaI, the ShaI outward currents result is on record as “not inhibited”.

As to `CSSC` [DMDS, di-methyl disulfide], in data set [1], the “effect on calcium-activated potassium currents” value is “inhibits calcium-activated potassium currents”.

For the compound `[Cl][Cd][Cl]` [cadmium chloride], the “activation of DmSK outward currents” value on DmSK Potassium Channel is reported as “outward currents activated by at least three 9.2 nl injections”.

On to `C[C@H](CCC(=O)O)C[C@H](C)C[C@H](C)C(=O)/C=C(\O)[C@H](C)C[C@H](C)C/C=C/[C@@H](C)[C@@H](O)[C@@H](C)[C@@H](O)C[C@@H]1CC[C@@](C)([C@H]2CC[C@@](C)([C@@H](C)O)O2)O1` [ionomycin], for which the half-maximal effective concentration (EC50) on DmSK was determined as 200 nM. Besides, at DmSK (SK3, relative to controls), the “concentration above which no increase in response window” value came out at 800 nM. Moreover, the “increase in assay window size, freshly-prepared versus solution of the day before” value in data set [2] is 6%.

As for `NCC(O)c1ccc(O)cc1` (centres unmarked) [octopamine], the “80% octopamine control concentration” value in data set [3] (20-plate DMSO test run, 2nd addition) is 100 nM. Moreover, the “rank order of potency (agonists)” value in data set [3] (clone 55, same as published cAMP data) is on record as “naphazoline>octopamine>amitraz>clonidine>tolazoline”. The “activity after repeated freeze-thaw” value in [4] (10 mM DMSO stocks) was “no reduction in activity”. In addition, the “response of 24-hour solution versus freshly diluted solution” value in [4] (stored at room temperature, data not shown) is “identical”.

Take `NCCc1ccc(O)cc1` [tyramine]: in [5] (preliminary data and published reports), the “efficacy relative to octopamine” value is reported as “only slightly less efficacious”. The “activation of octopamine receptor” value in [5] (sub-maximal dose) is on record as “activated by tyramine”.

The values are drawn from patent US9029080B2, “Screening assay for insecticides” (priority 2008, dated 2015).
